Source: ChEMBL document CHEMBL4024706 (Eur J Med Chem, 2017)
Activity calls are given as the source filed them. No cut-off for these calls is given here.

What was measured:
[1] = target: Tyrosine-protein kinase BTK (Homo sapiens, UniProt Q06187, C481S); experiment: Irreversible inhibition of recombinant full length 3'-FLAG-tagged BTK C481S mutant (unknown origin) expressed in HEK293T cells assessed as reduction in Y223 phosphorylation measured after 4 hrs by Western blot method; format: cell-based
Chain of Tyrosine-protein kinase BTK (Homo sapiens, UniProt Q06187, C481S) (Q06187 2-659 C481S limits assumed): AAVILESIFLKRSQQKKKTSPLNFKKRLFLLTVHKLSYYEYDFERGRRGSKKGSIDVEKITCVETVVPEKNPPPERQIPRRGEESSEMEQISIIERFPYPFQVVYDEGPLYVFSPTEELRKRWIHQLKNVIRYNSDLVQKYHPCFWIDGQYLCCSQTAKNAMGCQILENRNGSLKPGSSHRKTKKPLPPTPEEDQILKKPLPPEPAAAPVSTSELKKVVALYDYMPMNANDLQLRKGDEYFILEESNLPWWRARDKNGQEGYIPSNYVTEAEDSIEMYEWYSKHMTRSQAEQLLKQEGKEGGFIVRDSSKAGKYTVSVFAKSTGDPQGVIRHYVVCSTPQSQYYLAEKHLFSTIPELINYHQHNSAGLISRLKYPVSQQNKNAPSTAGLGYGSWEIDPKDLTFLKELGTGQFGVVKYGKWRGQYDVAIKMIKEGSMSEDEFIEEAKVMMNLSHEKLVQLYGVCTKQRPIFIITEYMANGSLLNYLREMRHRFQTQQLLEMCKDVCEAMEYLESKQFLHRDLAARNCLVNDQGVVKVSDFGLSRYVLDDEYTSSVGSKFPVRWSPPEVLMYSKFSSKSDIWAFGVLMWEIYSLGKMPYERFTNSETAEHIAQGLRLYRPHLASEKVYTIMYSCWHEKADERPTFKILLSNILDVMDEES

Ramos = experiment: Growth inhibition of human Ramos cells; format: functional; conditions: Homo sapiens, Ramos
SKM-1 = experiment: Growth inhibition of human SKM1 cells; format: functional; conditions: Homo sapiens, SKM-1
MV4-11 = experiment: Growth inhibition of human MV411 cells; format: functional; conditions: Homo sapiens, MV4-11
[2] = target: T1, Tyrosine-protein kinase BTK (Homo sapiens, UniProt Q06187); experiment: Inhibition of full length recombinant human N-terminal His tagged […] expressed in baculovirus infected Sf9 insect cells using poly (Glu,Tyr)4:1 as substrate pretreated for 60 mins followed by substrate addition after 1 hr by ADP-Glo luminescence assay
T1 sequence (Q06187 whole entry): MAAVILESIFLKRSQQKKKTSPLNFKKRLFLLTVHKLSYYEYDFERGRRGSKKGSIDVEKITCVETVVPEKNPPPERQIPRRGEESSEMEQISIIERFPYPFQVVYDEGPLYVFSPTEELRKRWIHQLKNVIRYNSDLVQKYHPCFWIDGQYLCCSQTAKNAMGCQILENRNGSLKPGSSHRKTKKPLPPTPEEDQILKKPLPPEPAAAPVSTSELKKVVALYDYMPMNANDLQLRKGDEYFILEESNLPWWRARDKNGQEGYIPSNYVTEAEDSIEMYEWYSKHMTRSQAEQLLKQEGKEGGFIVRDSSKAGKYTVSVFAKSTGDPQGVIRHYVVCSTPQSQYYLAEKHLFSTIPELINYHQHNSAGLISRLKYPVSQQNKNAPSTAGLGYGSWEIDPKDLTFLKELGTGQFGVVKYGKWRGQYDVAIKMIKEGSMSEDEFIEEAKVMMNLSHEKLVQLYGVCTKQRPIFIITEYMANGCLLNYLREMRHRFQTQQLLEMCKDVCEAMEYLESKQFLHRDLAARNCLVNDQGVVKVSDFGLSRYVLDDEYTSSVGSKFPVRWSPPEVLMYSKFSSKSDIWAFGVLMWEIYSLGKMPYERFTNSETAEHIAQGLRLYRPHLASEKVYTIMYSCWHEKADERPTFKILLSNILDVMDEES

OCI-AML-3 = experiment: Growth inhibition of human OCI-AML3 cells; format: functional; conditions: Homo sapiens, OCI-AML-3
Pfeiffer [3] = experiment: Growth inhibition of human Pfeiffer cells; format: functional; conditions: Homo sapiens, Pfeiffer
[4] = Growth inhibition of human M07e cells; format: functional; conditions: Homo sapiens, M-07e
[5] = target: T1, Tyrosine-protein kinase BTK; experiment: Irreversible inhibition of recombinant full length wild-type 3'-FLAG-tagged BTK (unknown origin) expressed in HEK293T cells assessed as reduction in Y223 phosphorylation measured after 4 hrs by Western blot method; format: cell-based
NB-4 = experiment: Growth inhibition of human NB4 cells; format: functional; conditions: Homo sapiens, NB-4
Pfeiffer [6] = experiment: Cell cycle arrest in human Pfeiffer cells assessed as increase in accumulation at G0/G1 phase at 10 uM after 48 hrs by propidium iodide/RNase staining based flow cytometric method; format: functional
SU-DHL-2 = experiment: Growth inhibition of human SU-DHL-2 cells; format: functional; conditions: Homo sapiens, SU-DHL-2
U2932 [7] = experiment: Growth inhibition of human U2932 cells; format: functional; conditions: Homo sapiens, U2932
U-937 = experiment: Growth inhibition of human U937 cells; format: functional; conditions: Homo sapiens, U-937
U2932 [8] = experiment: Cell cycle arrest in human U2932 cells assessed as increase in accumulation at G0/G1 phase at 10 uM after 48 hrs by propidium iodide/RNase staining based flow cytometric method; format: functional
[9] = target: Epidermal growth factor receptor (Homo sapiens, UniProt P00533); experiment: Inhibition of recombinant human N-terminal GST-tagged wild-type EGFR (695 to end residues) expressed in baculovirus infected Sf9 insect cells using poly (Glu,Tyr)4:1 as substrate pretreated for 60 mins followed by substrate addition after 1 hr by ADP-Glo luminescence assay
Chain of Epidermal growth factor receptor (P00533 whole entry): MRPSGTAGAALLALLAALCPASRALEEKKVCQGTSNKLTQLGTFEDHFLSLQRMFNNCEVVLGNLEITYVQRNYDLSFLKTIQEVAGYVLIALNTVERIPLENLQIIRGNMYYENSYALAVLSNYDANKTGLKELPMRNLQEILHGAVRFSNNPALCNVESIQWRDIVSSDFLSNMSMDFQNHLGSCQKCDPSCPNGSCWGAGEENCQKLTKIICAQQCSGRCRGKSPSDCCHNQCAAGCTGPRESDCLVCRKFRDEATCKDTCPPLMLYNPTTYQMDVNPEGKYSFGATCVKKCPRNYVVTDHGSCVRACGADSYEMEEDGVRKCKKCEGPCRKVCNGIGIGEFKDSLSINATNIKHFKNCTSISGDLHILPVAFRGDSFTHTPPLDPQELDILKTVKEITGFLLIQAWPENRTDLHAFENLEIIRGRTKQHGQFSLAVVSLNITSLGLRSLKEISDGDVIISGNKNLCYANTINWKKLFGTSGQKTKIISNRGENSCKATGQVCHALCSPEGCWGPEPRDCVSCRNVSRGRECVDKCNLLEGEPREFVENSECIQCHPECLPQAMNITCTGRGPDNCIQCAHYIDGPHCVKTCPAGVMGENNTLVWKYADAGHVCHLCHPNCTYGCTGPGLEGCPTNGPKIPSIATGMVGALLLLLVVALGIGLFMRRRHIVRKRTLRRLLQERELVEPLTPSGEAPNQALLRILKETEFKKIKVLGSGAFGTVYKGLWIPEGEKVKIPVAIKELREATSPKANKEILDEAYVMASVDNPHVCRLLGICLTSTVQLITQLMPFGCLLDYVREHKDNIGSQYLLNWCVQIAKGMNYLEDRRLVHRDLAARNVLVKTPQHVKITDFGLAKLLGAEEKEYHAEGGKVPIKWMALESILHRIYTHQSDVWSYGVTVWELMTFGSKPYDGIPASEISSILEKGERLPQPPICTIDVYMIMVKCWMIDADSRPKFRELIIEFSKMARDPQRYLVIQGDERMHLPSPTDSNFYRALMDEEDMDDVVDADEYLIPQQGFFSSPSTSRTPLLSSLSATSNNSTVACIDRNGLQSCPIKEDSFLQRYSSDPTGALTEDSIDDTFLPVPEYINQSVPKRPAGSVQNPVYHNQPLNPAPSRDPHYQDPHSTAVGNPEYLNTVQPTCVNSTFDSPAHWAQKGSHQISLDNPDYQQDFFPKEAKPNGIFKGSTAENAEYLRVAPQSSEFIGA

[10] = target: T1, Tyrosine-protein kinase BTK; experiment: Reversible inhibition of full length recombinant human N-terminal His tagged […] expressed in baculovirus infected Sf9 insect cells using poly (Glu,Tyr)4:1 as substrate pretreated for 2 to 60 mins followed by substrate addition after 1 hr by ADP-Glo luminescence assay
[11] = AUC (0 to infinity) in Sprague-Dawley rat at 10 mg/kg, po by LC-MS/MS method; format: ADME, organism-based; parameters: dose 10 mg/kg, route oral, time infinity; conditions: in vivo
[12] = AUC (0 to infinity) in Sprague-Dawley rat at 1 mg/kg, iv by LC-MS/MS method; format: ADME, organism-based; parameters: dose 1 mg/kg, route intravenous, time infinity; conditions: in vivo
[13] = target: T1, Tyrosine-protein kinase BTK
[14] = AUC (0 to t) in Sprague-Dawley rat at 10 mg/kg, po by LC-MS/MS method; format: ADME, organism-based; conditions: in vivo
PBMC = experiment: Cytotoxicity against PBMC (unknwon origin); format: cell-based
[15] = Oral bioavailability in Sprague-Dawley rat at 10 mg/kg by LC-MS/MS method; format: ADME, organism-based; conditions: in vivo
[16] = Cmax in Sprague-Dawley rat at 10 mg/kg, po by LC-MS/MS method; format: ADME, organism-based; parameters: dose 10 mg/kg, route oral; conditions: in vivo
[17] = Cmax in Sprague-Dawley rat at 1 mg/kg, iv by LC-MS/MS method; format: ADME, organism-based; parameters: dose 1 mg/kg, route intravenous; conditions: in vivo
[18] = Tmax in Sprague-Dawley rat at 10 mg/kg, po by LC-MS/MS method; format: ADME, organism-based; conditions: in vivo
[19] = Elimination half-life in Sprague-Dawley rat at 1 mg/kg, iv by LC-MS/MS method; format: ADME, organism-based; conditions: in vivo, read-out: beta t1/2 (converted)
[20] = MRT (0 to t) in Sprague-Dawley rat at 1 mg/kg, iv by LC-MS/MS method; format: ADME, organism-based; conditions: in vivo
[21] = target: T2, Tyrosine-protein kinase JAK3 (Homo sapiens, UniProt P52333); experiment: Inhibition of recombinant human N-terminal GST-tagged JAK3 (781 to end residues) expressed in baculovirus infected Sf9 insect cells using poly (Glu,Tyr)4:1 as substrate pretreated for 60 mins followed by substrate addition after 1 hr by ADP-Glo luminescence assay
T2 sequence (P52333 whole entry): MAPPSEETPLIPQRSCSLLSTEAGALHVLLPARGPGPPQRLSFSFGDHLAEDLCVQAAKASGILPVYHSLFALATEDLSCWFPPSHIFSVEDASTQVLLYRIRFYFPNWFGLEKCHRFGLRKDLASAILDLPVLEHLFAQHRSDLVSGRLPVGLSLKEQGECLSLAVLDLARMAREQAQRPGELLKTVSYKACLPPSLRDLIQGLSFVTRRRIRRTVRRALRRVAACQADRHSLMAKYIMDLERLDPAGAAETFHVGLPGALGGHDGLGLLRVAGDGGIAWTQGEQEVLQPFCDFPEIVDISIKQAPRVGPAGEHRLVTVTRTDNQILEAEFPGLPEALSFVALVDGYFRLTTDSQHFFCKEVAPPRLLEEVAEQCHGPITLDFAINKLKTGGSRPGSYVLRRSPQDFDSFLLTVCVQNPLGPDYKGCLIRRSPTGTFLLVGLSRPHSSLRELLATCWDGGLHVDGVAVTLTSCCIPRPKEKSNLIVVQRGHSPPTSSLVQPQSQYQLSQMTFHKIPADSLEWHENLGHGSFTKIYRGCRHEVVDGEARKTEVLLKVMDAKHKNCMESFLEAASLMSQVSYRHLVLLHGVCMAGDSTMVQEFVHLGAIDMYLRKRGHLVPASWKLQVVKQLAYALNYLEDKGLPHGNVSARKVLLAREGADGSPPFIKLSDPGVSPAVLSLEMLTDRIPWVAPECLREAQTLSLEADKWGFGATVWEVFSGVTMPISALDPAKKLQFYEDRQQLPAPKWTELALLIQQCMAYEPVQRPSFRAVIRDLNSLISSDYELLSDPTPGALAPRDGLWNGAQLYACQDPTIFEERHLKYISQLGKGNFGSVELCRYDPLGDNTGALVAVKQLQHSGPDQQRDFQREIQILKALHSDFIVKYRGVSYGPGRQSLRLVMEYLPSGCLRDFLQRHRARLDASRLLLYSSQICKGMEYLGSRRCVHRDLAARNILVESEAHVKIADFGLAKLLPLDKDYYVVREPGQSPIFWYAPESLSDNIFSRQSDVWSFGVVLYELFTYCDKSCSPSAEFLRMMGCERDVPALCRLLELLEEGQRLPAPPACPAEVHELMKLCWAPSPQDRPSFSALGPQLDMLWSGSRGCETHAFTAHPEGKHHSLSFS

[22] = Tmax in Sprague-Dawley rat at 1 mg/kg, iv by LC-MS/MS method; format: ADME, organism-based; conditions: in vivo
[23] = AUC (0 to t) in Sprague-Dawley rat at 1 mg/kg, iv by LC-MS/MS method; format: ADME, organism-based; conditions: in vivo
[24] = Elimination half-life in Sprague-Dawley rat at 10 mg/kg, po by LC-MS/MS method; format: ADME, organism-based; conditions: in vivo, read-out: beta t1/2 (converted)
[25] = MRT (0 to t) in Sprague-Dawley rat at 10 mg/kg, po by LC-MS/MS method; format: ADME, organism-based; conditions: in vivo

CCC(=O)Nc1cc(Nc2cc(-c3cccc(NC(=O)c4ccc(C(C)(C)C)cc4)c3C)cn(C)c2=O)ccc1C(=O)N1CCOCC1
EC50 [1]: > 0.1 µM | GI50 (Ramos): 4.6 µM | GI50 (SKM-1): > 10 µM | GI50 (MV4-11): 4.8 µM | IC50 [2]: 0.163 µM | GI50 (OCI-AML-3): 9.5 µM | GI50 (Pfeiffer [3]): > 10 µM | GI50 [4]: > 10 µM | EC50 [5]: > 0.1 µM | GI50 (NB-4): > 10 µM | Activity (Pfeiffer [6]): inactive | GI50 (SU-DHL-2): > 10 µM | GI50 (U2932 [7]): > 10 µM | GI50 (U-937): > 10 µM | Activity (U2932 [8]): inactive

C=CC(=O)Nc1cc(Nc2cc(-c3cccc(NC(=O)c4ccc(N(C)C)cc4)c3C)cn(C)c2=O)ccc1C(=O)N1CCOCC1
GI50 (Ramos): 2.1 µM | GI50 (SKM-1): 1 µM | IC50 [9]: 5.88 µM | GI50 (MV4-11): 1.9 µM | Ki [10]: 0.113 µM | IC50 [2]: 0.0058 µM | GI50 (OCI-AML-3): 2.6 µM | AUC(0-inf) [11]: 291 ng·h/mL | AUC(0-inf) [12]: 317 ng·h/mL | Kinact [13]: 0.33 min⁻¹ | GI50 (Pfeiffer [3]): 9 µM | AUC(0-t) [14]: 151 ng·h/mL | Activity (PBMC): Non-Toxic | GI50 [4]: 3.2 µM | bioavailability [15]: 4.76% | Cmax [16]: 144 ng/mL | Cmax [17]: 2440 ng/mL | GI50 (NB-4): 1.9 µM | Tmax [18]: 4.98 min | half-life [19]: 14.4 min | MRT last [20]: 9.6 min | GI50 (SU-DHL-2): 2.6 µM | IC50 [21]: 2.01 µM | GI50 (U2932 [7]): 6.9 µM | Tmax [22]: 1.02 min | AUC(0-t) [23]: 317 ng·h/mL | GI50 (U-937): 2.6 µM | half-life [24]: 472 min | MRT last [25]: 203 min

C=CC(=O)Nc1cc(Nc2cc(-c3cccc(NC(=O)c4cc5c(s4)CCCC5)c3C)cn(C)c2=O)ccc1C(=O)N1CCOCC1
GI50 (Ramos): 1.2 µM | GI50 (SKM-1): 2.8 µM | IC50 [9]: 6.86 µM | GI50 (MV4-11): 2.2 µM | Ki [10]: 0.006 µM | IC50 [2]: 0.0165 µM | GI50 (OCI-AML-3): 2.3 µM | AUC(0-inf) [11]: 1900 ng·h/mL | AUC(0-inf) [12]: 1560 ng·h/mL | Kinact [13]: 0.05 min⁻¹ | GI50 (Pfeiffer [3]): 3.5 µM | AUC(0-t) [14]: 1790 ng·h/mL | Activity (PBMC): Non-Toxic | GI50 [4]: 2.8 µM | bioavailability [15]: 11.5% | Cmax [16]: 1120 ng/mL | Cmax [17]: 7620 ng/mL | GI50 (NB-4): 2.4 µM | Tmax [18]: 90 min | half-life [19]: 36.5 min | MRT last [20]: 26.5 min | GI50 (SU-DHL-2): 1.8 µM | IC50 [21]: 1.03 µM | GI50 (U2932 [7]): 2.3 µM | Tmax [22]: 1.02 min | AUC(0-t) [23]: 1560 ng·h/mL | GI50 (U-937): 1.6 µM | half-life [24]: 232 min | MRT last [25]: 141 min
